Potency and outcome data for 90 compounds are collected here from PubChem BioAssay AID1199 (EPA DSSTox, 2008).

For the series, the system named is mouse carcinogenicity bioassay, TD50 from CPDB. The series can be described thus: DSSTox (CPDBAS) Carcinogenic Potency Database Summary Mouse Bioassay Results. In a few lines:
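Chronic long-term mouse cancer bioassays from literature and NCI/NTP, compiled per sex. TD50 is the standardized carcinogenic potency, using the most positive experiment per sex-species; target sites follow author opinion.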

Setting [1] is: TD50_Mouse_Note: TD50 is harmonic mean of more than one positive test, TargetSites_Mouse_Female: liver.
Where [2] appears, read: TD50_Mouse_Note: no positive results, TargetSites_Mouse_Female: no positive results.
Setting [3] is: TargetSites_Mouse_Female: no positive results.
Setting [4] is: TD50_Mouse_Note: TD50 is harmonic mean of more than one positive test, TargetSites_Mouse_Female: stomach.
Where [5] appears, read: TD50_Mouse_Note: TD50 is harmonic mean of more than one positive test, TargetSites_Mouse_Female: vascular system.
Setting [6] is: TD50_Mouse_Note: no positive results.

Calls of active or inactive are those of the source.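 The calls were made as follows: active = a tumour-causing dose and a tumour site recorded for mice in at least one sex group; inconclusive = only government mouse studies exist and were judged inadequate; inactive = mouse studies exist but none gave tumours.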

As to `Nc1ccc(Cc2ccc(N)cc2)cc1`, the Potency (TD50_Mouse_Note: TD50 is harmonic mean of more than one positive test, TargetSites_Mouse_Female: hematopoietic system, liver, thyroid gland) is 0.119 mmol/kg/day. With `Cc1c([N+](=O)[O-])c(C)c([N+](=O)[O-])c(C(C)(C)C)c1[N+](=O)[O-]`, under setting [1], the Potency was 0.427 mmol/kg/day. For the compound `Brc1cc(Br)c(-c2c(Br)c(Br)c(Br)c(Br)c2Br)c(Br)c1Br`, under setting [1], the Potency was 0.00418 mmol/kg/day. As for `COc1ccc(N)cc1N`, the Potency (TD50_Mouse_Note: TD50 is harmonic mean of more than one positive test, TargetSites_Mouse_Female: thyroid gland) is 3.83 mmol/kg/day. With `Cc1ccc(N=Nc2c(O)c(S(=O)(=O)O)cc3ccc(S(=O)(=O)O)cc23)c(C)c1`, under setting [1], the Potency was 1.49 mmol/kg/day. Consider `CCCCN(CCCC)C(=S)[S-].CCCCN(CCCC)C(=S)[S-].[Ni+2]`, for which the outcome under setting [2] is “inactive; no positive results”.

For the compound `CN(C)CCO`, the outcome under setting [2] was inactive. `Nc1c(Cl)cc(Cl)cc1Cl`: under setting [3], the Potency was 1.32 mmol/kg/day.

Consider `Cn1c(N)nc2c3cccnc3ccc21`, for which the Potency (TD50_Mouse_Note: TD50 is harmonic mean of more than one positive test, TargetSites_Mouse_Female: liver, lung, stomach) was 0.0989 mmol/kg/day. In the case of `Cc1[nH]cnc1CSCCN=C(NC#N)N(C)N=O`, the result under setting [2] was inactive. For `Nc1nc(-c2ccc([N+](=O)[O-])o2)cs1`, the Potency (TargetSites_Mouse_Female: stomach) was 0.0373 mmol/kg/day. Turning to `O=[N+]([O-])c1ccc(NCCO)c(OCCO)c1`, the outcome under setting [2] was “inactive; no positive results”.

Consider `O=C1OC(=O)c2ccccc21`, for which, under setting [2], the outcome is “inactive; no positive results”. The same measure, in the same setting: to `NC(=O)c1cccnc1` belongs “inactive; no positive results”. As to `O=NN1CCN(N=O)CC1`, the Potency under setting [4] is 0.025 mmol/kg/day. `O=C(O)C(Cl)Cl`: under setting [1], the Potency was 0.923 mmol/kg/day. As to `CC1=CC(=O)NS(=O)(=O)O1`, the outcome under setting [2] was “inactive; no positive results”. Regarding `OO`, for the setting “TargetSites_Mouse_Female: small intestine”, the Potency is 222 mmol/kg/day. As for `COC(N)=O`, the outcome under setting [2] was “inactive; no positive results”. Consider `O=Nc1ccc(Nc2ccccc2)cc1`, for which the Potency under setting [3] is 1.72 mmol/kg/day.

Turning to `Cc1ccc(N)cc1`, under setting [1], the Potency is 0.581 mmol/kg/day.

Turning to `Clc1ccc(C(c2ccc(Cl)cc2)C(Cl)(Cl)Cl)cc1`, for the setting “TD50_Mouse_Note: TD50 is harmonic mean of more than one positive test, greater than ten-fold variation among TD50 values for positive res, TargetSites_Mouse_Female: hematopoietic system, liver, lung”, the Potency is 0.0361 mmol/kg/day. Consider `CCCC(Cl)CCC(Cl)CCC(Cl)CCC(Cl)CCC(Cl)CCC(Cl)CCC(C)Cl` (stereo unspecified), for which the Potency under setting [3] is 11.6 mmol/kg/day. With `O=C1C2CC=CCC2C(=O)N1SC(Cl)(Cl)Cl` (stereo unspecified), under “TD50_Mouse_Note: TD50 is harmonic mean of more than one positive test, TargetSites_Mouse_Female: small intestine”, the Potency was 7.02 mmol/kg/day. Turning to `OCC1CO1` (stereo unspecified), the Potency (TD50_Mouse_Note: TD50 is harmonic mean of more than one positive test, TargetSites_Mouse_Female: harderian gland, mammary gland, skin, subcutaneous tissue, uterus) is 0.468 mmol/kg/day.

As for `FCC(F)(F)F`, under setting [2], the outcome is “inactive; no positive results”. The same measure, in the same setting: the value for `CC(=O)Nc1ccc(CC(=O)O)cc1` was “inactive; no positive results”.

Turning to `Brc1cc(Br)c(-c2cc(Br)c(Br)cc2Br)cc1Br`, under setting [1], the Potency is 0.000529 mmol/kg/day. As for `CC(=O)Nc1ccc(OCC(O)CNC(C)C)cc1` (stereo unspecified), under setting [2], the outcome was “inactive; no positive results”.

Turning to `c1ccc2c(c1)cc1ccc3cccc4ccc2c1c34`, the Potency (TD50_Mouse_Note: TD50 is harmonic mean of more than one positive test, TargetSites_Mouse_Female: esophagus, oral cavity, stomach) is 0.0138 mmol/kg/day. Take `CCCc1c(OCCCCc2nn[nH]n2)ccc(C(C)=O)c1O`: the Potency (TargetSites_Mouse_Female: liver) was 0.352 mmol/kg/day. For the compound `CC1(C)COC1=O`, the outcome under setting [2] was “inactive; no positive results”. In the case of `CN(C)C(=S)SSC(=S)N(C)C`, under setting [2], the outcome was “inactive; no positive results”.

`ClCc1ccccc1`: the Potency under setting [4] was 0.486 mmol/kg/day. As to `c1ccc(-c2ccccc2)cc1`, the outcome under setting [2] was “inactive; no positive results”. As to `CCC1(c2ccccc2)C(=O)N=C(O)NC1=O` (stereo unspecified), where the note is “TD50_Mouse_Note: TD50 is harmonic mean of more than one positive test, harmonic mean of TD50 includes a value for upper 99% confidence li, TargetSites_Mouse_Female: liver”, the Potency was 0.117 mmol/kg/day. For `CC(C)=CCC/C(C)=C/C=O`, the outcome under setting [2] was “inactive; no positive results”. On the same count and under the same terms, to `NC(=O)c1ccncc1` belongs “inactive; no positive results”. `C=O`: under setting [3], the Potency was 1.46 mmol/kg/day. In the case of `O=C(O)c1ccc(N=Nc2ccc(O)c(C(=O)O)c2)cc1`, the outcome under setting [2] is “inactive; no positive results”. Regarding `O=[N+]([O-])c1ccc(Cl)cc1`, under setting [5], the Potency was 3 mmol/kg/day.

For `Cc1ccc(N=C=O)cc1N=C=O`, the Potency (TargetSites_Mouse_Female: liver, vascular system) is 1.44 mmol/kg/day. With `CC(C)(C)c1cc(O)ccc1O`, the outcome under setting [2] is “inactive; no positive results”. Regarding `CCCCN(CCCC)N=O`, the Potency is 0.00689 mmol/kg/day. Take `CCOP(=S)(OCC)SC1OCCOC1SP(=S)(OCC)OCC` (stereo unspecified): the outcome under setting [2] was “inactive; no positive results”. For the compound `O=[N+]([O-])c1ccc2c3c(cccc13)CC2`, the Potency (TargetSites_Mouse_Female: liver, ovary) is 0.23 mmol/kg/day. As to `COc1ccc(N)c(OC)c1`, the outcome under setting [2] was “inactive; no positive results”. Still for that read-out and setting: the value for `O=C(Nc1ccc([N+](=O)[O-])cc1Cl)c1cc(Cl)ccc1O` was “inactive; ntp bioassay inadequate”. As to `O=CNNc1nc(-c2ccc([N+](=O)[O-])o2)cs1`, the Potency (TD50_Mouse_Note: TD50 is harmonic mean of more than one positive test, TargetSites_Mouse_Female: hematopoietic system, stomach) was 0.0425 mmol/kg/day. On to `CCCCN(CC)C(=O)SCCC`, for which the outcome under setting [2] is “inactive; no positive results”.

`Nc1cc([N+](=O)[O-])ccc1C(=O)O`: the outcome under setting [2] was “inactive; no positive results”. On the same count and under the same terms, to `CC(C)Nc1nc(Cl)nc(NC(C)C)n1` belongs “inactive; no positive results”; to `OCc1ccccc1`, “inactive; no positive results”. In the case of `O=[Se]=O`, the result under setting [6] was inactive. On to `CC(=O)OC[C@]12C[C@H](OC(=O)CC(C)C)C(C)=C[C@H]1O[C@@H]1[C@H](O)[C@@H](OC(C)=O)[C@@]2(C)C12CO2` (stereo partly specified), for which the Potency under setting [3] was 0.00189 mmol/kg/day. With `NNc1ccccc1`, under setting [5], the Potency was 0.493 mmol/kg/day. Besides, the result under setting [2] was inactive. `BrC(Br)Br`: under setting [2], the outcome is “inactive; no positive results”. Consider `CCn1cc(C(=O)O)c(=O)c2cc3c(cc21)OCO3`, for which the outcome under setting [2] is “inactive; no positive results”. The same measure, in the same setting: to `Nc1nc(N)nc(N)n1` belongs “inactive; no positive results”; to `CCNc1nc(Cl)nc(NCC)n1`, “inactive; no positive results”.

Turning to `C=CC(OC(C)=O)c1ccc2c(c1)OCO2` (stereo unspecified), the outcome under setting [6] is “inactive; no positive results”. Turning to `C=CC(=C)Cl`, the Potency (TD50_Mouse_Note: TD50 is harmonic mean of more than one positive test, TargetSites_Mouse_Female: ear Zymbals gland, harderian gland, liver, lung, mammary gland, peritoneal cavity, stomach, subcutaneous tissue, vascula) was 0.0923 mmol/kg/day. Take `CCNc1nc(Cl)nc(NC(C)C)n1`: the outcome under setting [2] was “inactive; no positive results”. On the same count and under the same terms, the value for `Clc1ccccc1` was “inactive; no positive results”; that for `COc1ccc(C(c2ccc(OC)cc2)C(Cl)(Cl)Cl)cc1` was “inactive; no positive results”.

As to `[O]=[Nb](=[O])[OH]`, under “TargetSites_Mouse_BothSexes: no positive results”, the outcome was inactive. In the case of `CCN=c1cc2oc3cc(NCC)c(C)cc3c(-c3ccccc3C(=O)OCC)c-2cc1C`, the outcome under setting [2] is “inactive; no positive results”. With `CC(C)CCCCCCOC(=O)c1ccccc1C(=O)OCCCCCCC(C)C`, the outcome (TD50_Mouse_Note: TD50 is harmonic mean of more than one positive test, TD50_Mouse_mmol was not calculated for this mixture, but Activiity, TargetSites_Mouse_Female: liver) was “active; liver”.

Consider `COC(=O)C(c1ccccc1)C1CCCCN1N=O` (stereo unspecified), for which the outcome under setting [2] is “inactive; no positive results”. Take `Cn1c(N)nc2ncc(-c3ccccc3)cc21`: the Potency (TD50_Mouse_Note: TD50 is harmonic mean of more than one positive test, TargetSites_Mouse_Female: hematopoietic system) was 0.127 mmol/kg/day. `C[C@H]1CCCC(=O)CCC/C=C/c2cc(O)cc(O)c2C(=O)O1`: the Potency (TD50_Mouse_Note: TD50 is harmonic mean of more than one positive test, TargetSites_Mouse_Female: liver, pituitary gland) is 0.123 mmol/kg/day. For `OB(O)O`, the outcome under setting [2] was “inactive; no positive results”. With `FC(F)OC(Cl)C(F)(F)F` (stereo unspecified), the outcome under setting [2] is “inactive; no positive results”. In the case of `Cc1cc(O)c2c(c1)C(=O)c1cc(O)cc(O)c1C2=O`, the outcome under setting [2] was “inactive; no positive results”. Regarding `Nc1ncn([C@@H]2O[C@H](CO)[C@@H](O)[C@H]2O)c(=O)n1`, under “TD50_Mouse_Note: positive test results only by intraperitoneal or intravenous injection, TD50 is harmonic mean of more than one positive, TargetSites_Mouse_Female: hematopoietic system, mammary gland, skin”, the Potency is 0.000317 mmol/kg/day. On to `O=CCCCC=O`, for which the outcome under setting [2] is “inactive; no positive results”.

In the case of `Cc1ccc2c(-c3ccccc3)nc(=O)n(C(C)C)c2c1`, the outcome under setting [2] is “inactive; no positive results”. Same read-out and setting: the value for `Brc1c(Br)c(Br)c(Oc2c(Br)c(Br)c(Br)c(Br)c2Br)c(Br)c1Br` was “inactive; no positive results”. For the compound `Cn1cnc([N+](=O)[O-])c1Sc1ncnc2nc[nH]c12`, the Potency (TargetSites_Mouse_Female: hematopoietic system, vascular system) was 0.0322 mmol/kg/day. Consider `NC(=O)N/N=C/c1ccc([N+](=O)[O-])o1`, for which the Potency (TargetSites_Mouse_Female: ovary) was 0.155 mmol/kg/day.

For the compound `CC(O)c1ccccc1` (stereo unspecified), under setting [2], the outcome was “inactive; no positive results”.

As to `Nc1nc(N)nc(-c2ccccc2)n1`, the outcome under setting [2] was “inactive; no positive results”. `Clc1ccc(Cl)cc1`: the Potency under setting [1] is 2.2 mmol/kg/day. As for `Cc1cc(O)cc(C)c1N(C)C`, the outcome under setting [2] is “inactive; no positive results”. The same measure, in the same setting: the value for `S=c1[nH]c2ccccc2s1` was “inactive; no positive results”. As for `Oc1ccc2c(c1)OCO2`, the Potency under setting [4] is 32.5 mmol/kg/day.

As to `Nc1ccc2ccccc2c1S(=O)(=O)O`, the outcome under setting [2] is “inactive; no positive results”.

`COP(=S)(OC)SCn1nnc2ccccc2c1=O`: under setting [2], the outcome is “inactive; no positive results”. For `Nc1cccc2ccccc12`, the Potency is 0.47 mmol/kg/day. `CC(=O)OC/C=C(\C)CCC=C(C)C`: the outcome under setting [2] was “inactive; no positive results”.
